# Measured values: paper PMC12395807, “Chemoreceptor family in plant-associated bacteria responds preferentially to the plant signal molecule glycerol 3-phosphate” (Genome Biology, 2025)
# Read-outs that look alike come from different tables or passages of the source.
# How the values were obtained:
# [1] = target: LBD of chemoreceptor R2 (WP_136157342.1) (Brenneria roseae, UniProt A0A2U1TV64, H128N/K136R); format: binding
# Description: (§1) Plasmids for the overexpression of the different proteins were transformed into E. coli BL21(DE3). The resulting strains were grown under continuous stirring (200 rpm) at 30 °C in 2-L Erlenmeyer flasks containing 500 mL of LB medium supplemented with 50 μg/mL kanamycin. At an OD660 of 0.5, protein expression was induced by the addition of 0.1 mM isopropyl β-D-1-thiogalactopyranoside. Growth was continued at 16 °C overnight prior to cell harvesting by centrifugation at 10,000 × g for 20 min. Cell pellets were resuspended in buffer A (Additional file 2: Table S4) and subsequently broken by French press treatment at 62.5 lb/in^2. After centrifugation at 20,000 × g for 30 min, the supernatants were loaded onto 5-mL HisTrap HP columns (Amersham Biosciences) equilibrated with buffer A, and the proteins were eluted with a linear gradient of buffer B (Additional file 2: Table S4). All proteins contain a hexa-histidine tag at the N-terminal extension (Additional file 2: Table S3) and were purified at 4 °C. The purified proteins were dialyzed overnight into the corresponding analysis buffers (Additional file 2: Table S4) for immediate analysis.
# (§2) All experiments were conducted on a VP microcalorimeter (Microcal, MA) at 15 °C for PacP-LBD and at 20 °C for the remaining proteins. Proteins were dialyzed into the analysis buffers specified in Additional file 2: Table S4, placed into the sample cell and titrated with aliquots of ligand solutions (1 to 10 mM) freshly prepared in dialysis buffer. The mean enthalpies measured from the injection of the ligands into the analysis buffer were subtracted from the raw titration data prior to data analysis with the MicroCal version of ORIGIN. The data were fitted with the “One binding site model” of ORIGIN.
# [2] = target: ligand binding domain of the chemoreceptor ECA_RS12390 (PacP-LBD, R1, WP_011094075.1) (Pectobacterium atrosepticum, UniProt Q6D464); assay: ITC binding to PacP-LBD; conditions: 15 °C, Nb = no binding
# Chain of ligand binding domain of the chemoreceptor ECA_RS12390 (PacP-LBD, R1, WP_011094075.1) (Q6D464 entry or part of it): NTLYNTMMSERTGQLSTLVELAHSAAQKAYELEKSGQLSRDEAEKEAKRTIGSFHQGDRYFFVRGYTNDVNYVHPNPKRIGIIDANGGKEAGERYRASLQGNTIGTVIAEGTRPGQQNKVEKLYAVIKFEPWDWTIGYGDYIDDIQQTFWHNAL
# Description: as §1, §2
# [3] = target: LBD of chemoreceptor R9 (WP_189529961.1) (Paludibacterium paludis, UniProt A0A918NWY2); assay: ITC binding to R9-LBD; conditions: 20 °C, Nb = no binding
# Chain of LBD of chemoreceptor R9 (WP_189529961.1) (A0A918NWY2 entry or part of it): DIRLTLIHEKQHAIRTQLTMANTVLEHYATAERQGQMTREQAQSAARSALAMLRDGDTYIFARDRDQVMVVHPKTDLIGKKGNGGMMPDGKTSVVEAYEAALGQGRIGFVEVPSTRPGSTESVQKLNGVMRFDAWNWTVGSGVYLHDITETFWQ
# Description: as §1, §2
# [4] = target: LBD of chemoreceptor R5 (WP_028444678.1); assay: ITC binding to R5-LBD; parameters: species or system Chitinimonas koreensis; conditions: 20 °C, Nb = no binding
# Description: as §1, §2
# [5] = target: LBD of chemoreceptor R6 (WP_174062248.1); assay: ITC binding to R6-LBD; parameters: species or system Agrobacterium larrymoorei; conditions: 20 °C, Nb = no binding
# Description: as §1, §2
# [6] = target: LBD of chemoreceptor R10 (WP_028866120.1); assay: ITC binding to R10-LBD; parameters: species or system Psychromonas aquimarina; conditions: 20 °C, Nb = no binding
# Description: as §1, §2
# [7] = tested on: ECA_RS12390-LBD (PacP-LBD); assay: Thermal shift ligand screening of PacP-LBD; format: binding, Pectobacterium atrosepticum; conditions: thermal shift assay, Biolog arrays PM1, PM2A, PM3B, PM4A
# Description: Assays were carried out on a MyIQ2 Real-Time PCR instrument (Bio-Rad, Hercules, CA, USA). Ligand solutions were prepared by dissolving the array compounds in 50 µL of Milli-Q water, which, according to the manufacturer, corresponds to a concentration of 10–20 mM. Freshly purified proteins were dialyzed into analysis buffer (Additional file 2: Table S4). Compound arrays PM1, PM2A (carbon sources), PM3B (nitrogen sources), and PM4A (phosphorus and sulfur sources) from Biolog (https://www.biolog.com/) were used. The compositions of these arrays are provided in Additional file 2: Table S1. The experiments were conducted in 96-well plates, and each assay mixture contained 20 µL of the dialyzed protein (at 80–50 µM), 2 µL of 5 × SYPRO orange (Life Technologies, Eugene, Oregon, USA), and 2.5 µL of the resuspended array compound or the equivalent amount of buffer in the ligand-free control. The samples were heated from 23 to 85 °C at a scan rate of 1 °C/min. The protein unfolding curves were monitored by detecting changes in SYPRO® Orange fluorescence. The Tm values were determined from the first derivative values of the raw fluorescence data.
# [8] = tested on: Pectobacterium atrosepticum SCRI1043; assay: Growth experiment, sole phosphorus source; format: cell-based; conditions: PFM9 minimal medium, 5 mM ligand, 30 °C, 48 h
# Description: (§3) P. atrosepticum SCRI1043 was cultured overnight in phosphate-free M9-based medium (PFM9) supplemented with 20 mM glucose as the carbon source and 500 µM inorganic phosphate as the phosphate source. Cultures were washed and then diluted to an OD600 of 0.02 in PFM9 supplemented with different PacP ligands as the sole carbon or phosphorous source at a final concentration of 5 mM. Subsequently, 200 µL aliquots of these cultures were transferred into microwell plates, which were subsequently grown at 30 °C on a Bioscreen microbiological growth analyzer (Oy Growth Curves Ab Ltd., Helsinki, Finland) for 48 h.
# [9] = tested on: P. atrosepticum SCRI1043; assay: Quantitative capillary chemotaxis assay, wild type; format: cell-based, Pectobacterium atrosepticum; conditions: wild type SCRI1043, 1 mM ligand, 30 min
# Description: (§4) Overnight cultures of P. atrosepticum SCRI1043 were grown at 30 °C in minimal medium. At an OD660 of 0.4–0.45, the cultures were washed twice with chemotaxis buffer (50 mM K2HPO4/KH2PO4, 20 μM EDTA, 0.05% (v/v) glycerol, pH 7.0) and diluted to an OD660 of 0.1 in the same buffer. Subsequently, 230 μL of the resulting bacterial suspension was placed into the wells of 96-well plates. One-microliter capillary tubes (P1424, Microcaps; Drummond Scientific) were heat-sealed at one end and filled with either chemotaxis buffer (negative control) or chemotaxis buffer containing PacP ligands at a concentration of 1 mM. The capillaries were immersed in the bacterial suspensions at their open ends. After 30 min at room temperature, the capillaries were removed from the bacterial suspensions, rinsed with sterile water, and the contents were expelled into 1 mL of 40 mM K2HPO4, 15 mM KH2PO4. Serial dilutions were plated onto minimal medium supplemented with 15 mM glucose as the carbon source. The number of colony-forming units was determined after 36 h of incubation at 30 °C. In all the cases, the data were corrected with the number of cells that swam into the buffer-containing capillaries.
# [10] = tested on: P. atrosepticum SCRI1043 pacP mutant (MpacP); assay: Quantitative capillary chemotaxis assay, pacP mutant; format: cell-based, Pectobacterium atrosepticum; conditions: 1 mM ligand
# Text: A mutant defective in ECA_RS12390 was constructed by homologous recombination using a derivative plasmid of the suicide vector pKNG101. Briefly, a 0.5-kb fragment corresponding to the region encoding the LBD of ECA_RS12390 was amplified by the primers specified in Additional file 2: Table S2 and cloned into pGEM®-T. The resulting plasmid pGEM::ECA_RS12390 was digested with XmaI, and the 0.5-kb insert was cloned into the same site at pKNG101 to generate pKNG101::ECA_RS12390. This plasmid was subsequently transformed into P. atrosepticum SRCI1043 via biparental conjugation using E. coli β2163. All the plasmids were verified by PCR and sequencing. The pETb(+) derivatives encoding the LBD of the different receptors analyzed in this study (Table 1) were purchased from GeneScript. Plasmid pBBR-ECA_RS12390 was constructed by amplifying the pacP gene using the primers detailed in Additional file 2: Table S2 and cloning of the PCR product into the NdeI/BamHI sites of pBBR1MCS2_START. The sequences of the proteins analyzed in this study are provided in Additional file 2: Table S3. The ECA_RS12390 nucleotide sequence is available in the published genome of P. atrosepticum SCRI1043 [60].
# as §4
# [11] = tested on: Pectobacterium atrosepticum SCRI1043; assay: Growth experiment, sole carbon source; format: cell-based; conditions: PFM9 minimal medium, 5 mM ligand, 30 °C, 48 h
# Description: as §3
# [12] = target: LBD of chemoreceptor R7 (WP_019915375.1); assay: ITC binding to R7-LBD; parameters: species or system Methyloversatilis discipulorum; conditions: 20 °C, Nb = no binding
# Chain of LBD of chemoreceptor R7 (WP_019915375.1) (as listed by the source): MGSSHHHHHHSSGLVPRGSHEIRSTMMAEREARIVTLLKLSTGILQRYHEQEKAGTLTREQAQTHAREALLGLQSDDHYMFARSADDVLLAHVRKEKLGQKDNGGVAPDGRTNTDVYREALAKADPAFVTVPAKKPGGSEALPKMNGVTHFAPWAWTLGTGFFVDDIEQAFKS
# Description: as §1, §2
# [13] = target: LBD of chemoreceptor R3 (WP_006464688.1) (Herbaspirillum frisingense, UniProt A0ABU1PC34); assay: ITC binding to R3-LBD; conditions: 20 °C, Nb = no binding
# Chain of LBD of chemoreceptor R3 (WP_006464688.1) (A0ABU1PC34 entry or part of it): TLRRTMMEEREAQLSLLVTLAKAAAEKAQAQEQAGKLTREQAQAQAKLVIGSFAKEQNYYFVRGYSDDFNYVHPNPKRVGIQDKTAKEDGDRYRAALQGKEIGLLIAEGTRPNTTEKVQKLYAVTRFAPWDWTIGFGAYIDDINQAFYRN
# Description: as §1, §2
# [14] = target: LBD of chemoreceptor R4 (WP_158281851.1) (Rivihabitans pingtungensis, UniProt A0A318KJN4); assay: ITC binding to R4-LBD; parameters: species or system Rivicola pingtungensis; conditions: 20 °C, Nb = no binding
# Chain of LBD of chemoreceptor R4 (WP_158281851.1) (A0A318KJN4 entry or part of it): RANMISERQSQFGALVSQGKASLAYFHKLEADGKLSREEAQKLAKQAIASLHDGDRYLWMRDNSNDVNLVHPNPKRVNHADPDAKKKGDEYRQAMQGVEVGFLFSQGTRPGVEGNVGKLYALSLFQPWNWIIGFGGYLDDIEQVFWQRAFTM
# Description: as §1, §2
# [15] = ITC binding to R7-LBD; parameters: species or system Methyloversatilis discipulorum; conditions: 20 °C, Nb = no binding
# Description: as §1, §2
# [16] = tested on: Bacillus subtilis; parameters: method as in PMID 119030, PMID 500565; conditions: cited from earlier work
# [17] = tested on: Bdellovibrio bacteriovorus; parameters: method as in PMID 119030, PMID 500565; conditions: cited from earlier work
# [18] = ITC, 20 °C, R2 LBD, Nb = no binding
# Chain of LBD of chemoreceptor R2 (WP_136157342.1) (A0A2U1TV64 28-178 H128N/K136R): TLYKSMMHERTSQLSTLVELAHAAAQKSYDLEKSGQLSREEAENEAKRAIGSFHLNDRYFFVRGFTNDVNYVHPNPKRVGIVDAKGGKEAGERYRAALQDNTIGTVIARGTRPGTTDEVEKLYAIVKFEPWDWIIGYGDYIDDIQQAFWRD
structure (smiles),measurement,setting,value
"CCCCCCC(N)C(=O)O (racemic) [D,L-aminocaprylic acid]",KD,[1]; [18],did not reveal binding
O=C(O)[C@H](CO)OP(=O)(O)O [2-phosphoglycerate],KD,[2],No binding
O=C(O)CC(Br)C(=O)O (stereo not shown) [Bromosuccinate],Kd,[3],200 ± 13 µM
same,KD,[4],Nb
same,KD,[5],Nb
same,KD,[6],Nb
O=C(O)CC(O)(CC(=O)O)C(=O)O [Citrate],KD,[3],Nb
same,Kd,[4],10 ± 2 µM
same,KD,[5],Nb
same,KD,[6],Nb
O=C(O)/C=C/C(=O)O [Fumarate],KD,[3],Nb
same,Kd,[4],68 ± 6 µM
same,Kd,[5],90 ± 4 µM
same,KD,[6],Nb
O=C(O)CO [Glycolate],KD,[3],Nb
same,KD,[4],Nb
same,KD,[5],Nb
same,Kd,[6],322 ± 114 µM
N[C@@H](CS(=O)(=O)O)C(=O)O [L-cysteic acid],KD,[1]; [18],did not reveal binding
C[C@H](O)C(=O)O [L-lactate],KD,[3],Nb
same,KD,[4],Nb
same,KD,[5],Nb
same,Kd,[6],463 ± 51 µM
O=C(O)CC(O)C(=O)O (stereo not shown) [Malate],Kd,[3],185 ± 5 µM
same,Kd,[4],61 ± 2 µM
same,Kd,[5],63 ± 1 µM
same,KD,[6],Nb
CC(CC(=O)O)C(=O)O (stereo not shown) [Methylsuccinate],Kd,[3],254 ± 53 µM
same,KD,[4],Nb
same,KD,[5],Nb
same,KD,[6],Nb
CC(=O)C(=O)O [Pyruvate],KD,[2],did not bind
O=C(O)CCC(=O)O [Succinate],KD,[3],Nb
same,Kd,[4],127 ± 5 µM
same,Kd,[5],90 ± 4 µM
same,Kd,[6],362 ± 23 µM
O=C(O)CC(CC(=O)O)C(=O)O [Tricarballylate],Kd,[3],138 ± 33 µM
same,Kd,[4],15 ± 1 µM
same,KD,[5],Nb
same,KD,[6],Nb
CC(=O)O [acetic acid],KD,[1],did not reveal binding
CC(=O)CC(=O)O [acetoacetic acid],KD,[1]; [18],did not reveal binding
CCCCCC(=O)O [caproic acid],KD,[1]; [18],did not reveal binding
NC(=O)OP(=O)(O)O [carbamoylphosphate],KD,[2],did not result in measurable heat release
same,Tm change with respect to the ligand-free protein,[7],significant increases in Tm
O=C(CO)COP(=O)(O)O [dihydroxyacetone phosphate],growth as sole phosphorus source,[8],devoid of apparent metabolic value
same,chemotaxis (capillary assay),[9],Modest chemoattraction
same,KD,[3],Nb
same,KD,[4],Nb
same,chemotaxis (capillary assay),[10],Only glycerol 2-phosphate served as an attractant for the mutant
same,growth as sole carbon source,[11],devoid of apparent metabolic value
same,KD,[12],Nb
same,KD,[13],bound
same,Kd,[13],109 ± 14 µM
same,Kd,[14],230 ± 10 µM
same,Kd,[2],13 ± 1 µM
same,KD,[5],Nb
same,KD,[6],Nb
O=CO [formic acid],KD,[1],did not reveal binding
O=CC(CO)OP(=O)(O)O (stereo not shown) [glyceraldehyde 2-phosphate],KD,[12],bound
O=P(O)(O)OC(CO)CO [glycerol 2-phosphate],growth as sole phosphorus source,[8],permitted growth
same,chemotaxis (capillary assay),[9],Modest chemoattraction
same,KD,[3],Nb
same,KD,[4],Nb
same,chemotaxis (capillary assay),[10],served as an attractant
same,Kd,[15],223 ± 45 µM
same,KD,[13],bound
same,Kd,[13],36 ± 2 µM
same,Kd,[14],60 ± 2 µM
same,Kd,[2],72 ± 2 µM
same,KD,[5],Nb
same,chemotaxis,[16],weak chemotaxis
same,chemotaxis,[17],weak chemotaxis
same,KD,[6],Nb
CC(O)C(=O)O (stereo not shown) [lactate],KD,[2],did not bind
CCC(=O)O [propionic acid],KD,[1]; [18],did not reveal binding
